According to patent US20020082254A1, “Compounds for treating disorders where a decreased level of plasma FFA is desired” (priority 2000, published 2002):

Molecular target: T1, Hormone-sensitive lipase (HSL) (Homo sapiens, UniProt Q05469)
T1 sequence (Q05469 1-1076): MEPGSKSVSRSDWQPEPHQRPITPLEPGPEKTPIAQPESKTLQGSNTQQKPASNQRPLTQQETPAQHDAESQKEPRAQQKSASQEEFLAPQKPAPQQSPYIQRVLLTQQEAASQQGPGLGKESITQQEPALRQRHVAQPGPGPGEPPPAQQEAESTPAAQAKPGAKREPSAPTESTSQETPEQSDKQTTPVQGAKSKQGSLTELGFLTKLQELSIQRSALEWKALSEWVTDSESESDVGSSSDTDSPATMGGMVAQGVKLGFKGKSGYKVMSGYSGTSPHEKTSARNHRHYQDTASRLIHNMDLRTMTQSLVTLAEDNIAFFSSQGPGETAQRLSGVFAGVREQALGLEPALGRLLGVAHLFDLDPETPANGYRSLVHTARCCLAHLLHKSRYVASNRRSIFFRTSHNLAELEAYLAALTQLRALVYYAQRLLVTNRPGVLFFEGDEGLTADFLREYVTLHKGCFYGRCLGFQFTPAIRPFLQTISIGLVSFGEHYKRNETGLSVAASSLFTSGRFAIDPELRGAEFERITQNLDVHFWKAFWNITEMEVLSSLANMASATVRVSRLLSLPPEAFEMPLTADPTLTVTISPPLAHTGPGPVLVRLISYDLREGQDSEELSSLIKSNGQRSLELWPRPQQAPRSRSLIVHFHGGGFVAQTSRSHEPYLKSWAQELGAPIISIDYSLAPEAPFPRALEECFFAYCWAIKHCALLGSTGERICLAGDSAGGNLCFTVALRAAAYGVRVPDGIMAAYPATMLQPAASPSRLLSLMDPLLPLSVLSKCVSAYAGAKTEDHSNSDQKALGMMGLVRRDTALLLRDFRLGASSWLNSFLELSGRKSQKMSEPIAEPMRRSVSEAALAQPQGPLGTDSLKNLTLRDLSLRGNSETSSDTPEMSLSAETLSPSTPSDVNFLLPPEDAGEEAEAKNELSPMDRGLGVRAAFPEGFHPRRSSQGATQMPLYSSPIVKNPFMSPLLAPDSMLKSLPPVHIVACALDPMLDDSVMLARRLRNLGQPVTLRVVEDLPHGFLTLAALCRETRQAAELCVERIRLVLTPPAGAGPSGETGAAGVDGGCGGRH
Assay: Hormone-sensitive lipase (HSL) inhibition assay, 3H-labeled triolein or MOME substrate
Type: biochemical
Conditions: read-out: HSL inhibition (IC50)
Summary of the method: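 HSL enzyme (0.12 mg/ml stock) preincubated with inhibitor in PED-BSA, then given sonicated PC:PI-emulsified ³H-triolein or ³H-MOME in 0.1 M potassium phosphate pH 7 with BSA. 30 min at 37 °C; released radiolabelled fatty acid extracted in methanol/chloroform/heptane at pH 10.5 and scintillation counted.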

O=C(NN1CCc2ccccc2C1)Oc1ccc(Cl)cc1 [Example 6, (3,4-Dihydro-1H-isoquinolin-2-yl)-carbamic acid 4-chloro-phenyl Ester]
IC50: 19 nM

CC(C)(C)OC(=O)Nc1ccc(OC(=O)NN2CCc3ccccc3C2)cc1 [Example 17, (3,4-Dihydro-1H-isoquinolin-2-yl)-carbamic Acid 4-tert-butoxycarbonylamino-phenyl Ester]
IC50: 3 nM

CC1Cc2ccccc2CN1NC(=O)Oc1ccc(Cl)cc1 (stereo not drawn) [Example 23, (3-Methyl-3,4-dihydro-1H-isoquinolin-2-yl)-carbamic Acid 4-chloro-phenyl Ester]
IC50: 40 nM
